Our source for the IC50 values is BindingDB's records for doi:10.1021/acs.jmedchem.6b01270 (University of Tennessee Health Science Center, 2017).

The structures appear in SMILES notation.

The assay can be described thus: Inhibition of ATX (unknown origin) expressed in human A2058 cells assessed as inhibition of LPC-induced cell invasion after 20 hrs by calcein-AM dye based matrigel-mediated Boyden chamber assay.
On to `O=C(Nc1cc(F)c(Cl)c(F)c1)c1cc(S(=O)(=O)N2CCOCC2)c(Cl)cc1Cl`, for which the IC50 (commonly the concentration that gives 50% inhibition) is 740 nM.

As for `O=S(=O)(c1cc(C(=S)Nc2cc(F)c(F)c(F)c2)c(Cl)cc1Cl)N1CCOCC1`, the IC50 was 403 nM.

As to `O=C(Nc1ccc(F)c(F)c1)c1cc(S(=O)(=O)N2CCOCC2)c(Cl)cc1Cl`, the IC50 is 528 nM.
